Results reported in PMC11048033, “Dual Anti-Inflammatory and Anticancer Activity of Novel 1,5-Diaryl Pyrazole Derivatives: Molecular Modeling, Synthesis, In Vitro Activity, and Dynamics Study” (Biomedicines, 2024).

How the values were obtained:
[1] = target: BSA (bovine albumin serum) (Bos taurus, UniProt P02769); experiment: Protein (albumin) denaturation assay; conditions: maximum inhibition; compounds tested at 50-200 µg/mL, diclofenac 100 µg/mL
Method: Mizushima and Kobayashi’s technique was employed for the determination of in vitro anti-inflammatory activity by the protein denaturation method for the synthesized compounds. […] Then, a mixture of 500µL of 1% aqueous solution of BSA (bovine albumin serum) and 1.4 mL of phosphate buffer saline (PBS, pH 7.4) was added to 100 µL of varying concentrations of the synthesized compounds 50, 100, and 200 µg/mL. […] The mixtures are then incubated for 15 min at 37 °C and then heated for 10 min at 60 °C. The absorbance was measured at 660nm (SHIMADZU, UV-1800 Spectrophotometer) upon cooling. […] The entire experiment was done in triplicate, and the average was calculated. % inhibition of protein denaturation was calculated by: % inhibition=Absorbance of Control−Absorbance of Sample/Absorbance of Control×100
The anti-inflammatory capacity of the target compound was evaluated using the protein denaturation assay.

[2] = system: HEPG2 (human liver) cell line; experiment: MTT anticancer assay, HepG2; format: cell-based
Method: (§1) The in vitro anticancer activity is determined by counting the viable cells that are stained with a vital dye. The MTT technique is an accurate measure of the activity of live cells using mitochondrial dehydrogenases. The target tumor cells A549 (human lung adenocarcinoma) and HEPG2 (human liver) cell lines are procured from the “National Centre for Cell Science” (NCCS, Pune). The sources of reagents like Trypsin, DMEM, Pen strip, and FBS are procured from Himedia. […] The culture medium was prepared, and the MTT assay was performed as per the general procedure described by Mosmann T. et al., [30] and the % viability of the cells was determined.
(§2) The target compounds tested for in vitro COX-2 were further checked for in vitro anti-cancer activity against A549 (lung cancer) and HepG2 (liver cancer) cell lines using MTT growth inhibition assay. The compounds were tested for cytotoxicity against both the cell lines at concentrations of 6.25, 12.5, 25, 50, and 100 µg/mL. […] Using the graph where % cell viability is plotted versus concentration, the IC50 values are determined with the help of the dose–response regression equation.

[3] = system: A549 (human lung adenocarcinoma) cell line; experiment: MTT anticancer assay, A549; format: cell-based
Method: as §1, §2

[4] = target: T1, Human COX-2 (Homo sapiens, UniProt P35354); experiment: In vitro COX-2 enzymatic assay (Cayman COX (human) Inhibitor Screening Assay Kit); format: biochemical; conditions: human COX-2
T1 construct: purchased Cayman Chemicals 701230
T1 sequence (P35354 18-604): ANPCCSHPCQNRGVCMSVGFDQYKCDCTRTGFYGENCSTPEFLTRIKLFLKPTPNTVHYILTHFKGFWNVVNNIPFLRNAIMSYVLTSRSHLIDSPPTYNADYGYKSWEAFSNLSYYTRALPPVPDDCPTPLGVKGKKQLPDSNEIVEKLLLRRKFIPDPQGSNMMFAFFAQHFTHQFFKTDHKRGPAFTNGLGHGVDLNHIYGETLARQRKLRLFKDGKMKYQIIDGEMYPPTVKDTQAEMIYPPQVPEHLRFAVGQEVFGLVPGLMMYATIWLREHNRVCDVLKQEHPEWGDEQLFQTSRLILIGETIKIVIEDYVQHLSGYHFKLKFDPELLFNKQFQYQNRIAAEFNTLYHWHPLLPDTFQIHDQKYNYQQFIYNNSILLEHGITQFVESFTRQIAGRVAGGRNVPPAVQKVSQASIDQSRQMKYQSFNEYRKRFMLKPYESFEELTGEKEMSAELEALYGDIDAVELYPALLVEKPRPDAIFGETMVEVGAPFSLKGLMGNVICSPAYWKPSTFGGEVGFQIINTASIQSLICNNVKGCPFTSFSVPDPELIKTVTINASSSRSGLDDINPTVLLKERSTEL
Method: The ability of the compounds to inhibit COX -2 (IC50 values, µM) was determined by using a “COX (human) Inhibitor Screening Assay Kit” procured from Cayman Chemicals (catalog number 701230). With a slight modification in the method as defined in the reference, the COX-2 inhibition assay was performed. Using the percent conversion of arachidonic acid (AA) to PGH2, the enzyme activity was calculated. By enzyme immunoassay PGF2α, which is produced from PGH2 by reduction with stannous chloride, is calculated. The test compounds’ stock solutions are prepared by dissolving in a minimum amount of DMSO. Human COX-2 (10 µL) in the presence of 10 µL of heme was suspended in 0.1M Tris-HCl buffer (pH 8.0) which contains 2 mM phenol and 5 mM EDTA. This was added to various concentrations of test compounds and, on incubating the solutions at 37 °C for 5 min, 10 µL of AA solution were added. Later, the COX reaction was stopped by adding 1M HCl (50 µL) after 2 min. The intensity of the yellow color which is produced as the product of the enzymatic reaction is determined spectrophotometrically. The percent inhibition was calculated by comparing the compound treated to different control incubations. […] The determinations are done in triplicate and the IC50 (µM) was determined using the concentration–inhibition response curve.
During the initiation of the inflammatory process, the COX enzyme plays a vital role in the progression of inflammatory response. The inflammatory mediators that arise due to the action of COX lead to the chemoattraction of neutrophils, macrophages, eosinophils, etc. […] This was carried out with the help of a COX (human) inhibitor screening assay kit (Item no. 701230) from Cayman chemicals. […] A test substance concentration was considered to be inhibitive when it inhibited human COX-1 or COX-2 by 50%. The compound’s selectivity was measured by its selectivity index values, derived as IC50 (COX-1)/IC50 (COX-2).

Sequence of BSA (bovine albumin serum) (P02769 25-607): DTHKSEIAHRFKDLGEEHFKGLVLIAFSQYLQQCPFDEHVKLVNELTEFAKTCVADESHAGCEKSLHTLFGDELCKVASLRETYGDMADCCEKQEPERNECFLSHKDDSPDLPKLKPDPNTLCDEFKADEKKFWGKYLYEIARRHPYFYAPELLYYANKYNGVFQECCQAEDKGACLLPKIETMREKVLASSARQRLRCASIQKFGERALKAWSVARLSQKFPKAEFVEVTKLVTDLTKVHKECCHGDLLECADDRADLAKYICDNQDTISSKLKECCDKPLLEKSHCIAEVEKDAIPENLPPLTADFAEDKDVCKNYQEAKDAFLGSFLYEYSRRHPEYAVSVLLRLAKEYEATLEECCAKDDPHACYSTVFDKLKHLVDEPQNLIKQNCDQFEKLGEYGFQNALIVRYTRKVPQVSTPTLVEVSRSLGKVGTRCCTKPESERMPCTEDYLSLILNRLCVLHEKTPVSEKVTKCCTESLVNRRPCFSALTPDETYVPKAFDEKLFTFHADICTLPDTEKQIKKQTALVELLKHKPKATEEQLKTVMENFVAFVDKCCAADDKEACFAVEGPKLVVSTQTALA

`COc1ccc(-c2cc(C(=O)NN=Cc3cccc(Oc4ccccc4)c3)nn2-c2ccc(S(N)(=O)=O)cc2)cc1` [Compound T1, 4-(5-(4-methoxyphenyl)-3-(2-(3-phenoxybenzylidene) hydrazine-1-carbonyl)-1H-pyrazol-1-yl) benzenesulfonamide] was tested, and the “% inhibition of albumin denaturation” value [1] was “less than 50%”.

With `COc1ccc(-c2cc(C(=O)NN=Cc3ccc(Oc4ccccc4)cc3)nn2-c2ccc(S(N)(=O)=O)cc2)cc1` [Compound T2, 4-(5-(4-methoxyphenyl)-3-(2-(4-phenoxybenzylidene) hydrazine-1-carbonyl)-1H-pyrazol-1-yl) benzenesulfonamide] the “% cell viability” value ([2]; HepG2, 6.25 µg/ml) was 78.42%, the “% cell viability” value ([2]; HepG2, 12.5 µg/ml) was 77.90% and the “% cell viability” value ([2]; HepG2, 25 µg/ml) was 71.82%. The “% cell viability” value ([2]; HepG2, 50 µg/ml) was 67.10%, the “% cell viability” value ([2]; HepG2, 100 µg/ml) was 64.39% and the “IC50 against HepG2” value ([2]; MTT, HepG2) was > 100 µM. The “anti-cancer activity against A549 cell lines (in words)” value ([3]; A549) was “active”, the “% cell viability” value ([3]; A549, 6.25 µg/ml) was 95.63% and the “% cell viability” value ([3]; A549, 12.5 µg/ml) was 81.83%. For the same compound, the “% cell viability” value ([3]; A549, 25 µg/ml) was 54.02%, the “% cell viability” value ([3]; A549, 50 µg/ml) was 33.98% and the “% cell viability” value ([3]; A549, 100 µg/ml) was 18.25%. The “concentration at which compound was effective (from % inhibitory values)” value ([3]; A549 cell lines) was 25 µg/mL, the “IC50 against A549” value ([3]; MTT, A549) was 31.49 µM and the IC50 [4] was 12 µM. For the same compound, the “% inhibition of albumin denaturation” value [1] was 81.77%.

`NS(=O)(=O)c1ccc(-n2nc(C(=O)NN=Cc3cccc(Oc4ccccc4)c3)cc2-c2ccc(Br)cc2)cc1` [Compound T4, 4-(5-(4-bromophenyl)-3-(2-(3-phenoxybenzylidene) hydrazine-1-carbonyl)-1H-pyrazol-1-yl) benzenesulfonamide] was tested, and the “% inhibition of albumin denaturation” value [1] was “less than 50%”.

In the case of `Cc1cc(C=NNC(=O)c2cc(-c3ccc(Cl)cc3)n(-c3ccc(S(N)(=O)=O)cc3)n2)cc(C)c1OCc1ccccc1` [Compound T6, 4-(3-(2-(4-(benzyloxy)-3,5-dimethylbenzylidene) hydrazine-1-carbonyl)-5-(4-chlorophenyl)-1H-pyrazol-1-yl)benzenesulfonamide], the “anti-cancer activity against HepG2 cell line (in words)” value ([2]; HepG2) is reported as “active”, the viability at 6.25 µg/mL ([2]; Homo sapiens, HepG2, 6.25 µg/ml) is reported as 24.1% and the viability at 12.5 µg/mL ([2]; Homo sapiens, HepG2, 12.5 µg/ml) is reported as 11%. The viability at 25 µg/mL ([2]; Homo sapiens, HepG2, 25 µg/ml) was 2.99%, the viability at 50 µg/mL ([2]; Homo sapiens, HepG2, 50 µg/ml) was 2.87% and the viability at 100 µg/mL ([2]; Homo sapiens, HepG2, 100 µg/ml) was 2.62%. The IC50 ([2]; Homo sapiens, MTT, HepG2, read-out: IC50 against HepG2) was < 6.25 µg/mL, the viability at 6.25 µg/mL ([3]; Homo sapiens, A549, 6.25 µg/ml) was 97.7% and the viability at 12.5 µg/mL ([3]; Homo sapiens, A549, 12.5 µg/ml) was 87%. It also gave a viability at 25 µg/mL ([3]; Homo sapiens, A549, 25 µg/ml) of 78.8%, a viability at 50 µg/mL ([3]; Homo sapiens, A549, 50 µg/ml) of 74.6% and a viability at 100 µg/mL ([3]; Homo sapiens, A549, 100 µg/ml) of 63.4%. For the same compound, the IC50 ([3]; Homo sapiens, MTT, A549, read-out: IC50 against A549) was > 100 µg/mL, the IC50 [4] was 2.54 µM and the “% inhibition of albumin denaturation” value [1] was 61.05%.

With `NS(=O)(=O)c1ccc(-n2nc(C(=O)NN=Cc3ccc(Oc4ccccc4)cc3)cc2-c2ccc(Br)cc2)cc1` [Compound T7, 4-(5-(4-bromophenyl)-3-(2-(4-phenoxybenzylidene) hydrazine-1-carbonyl)-1H-pyrazol-1-yl) benzenesulfonamide] the “% inhibition of albumin denaturation” value [1] was “less than 50%”.

In the case of `NS(=O)(=O)c1ccc(-n2nc(C(=O)NN=Cc3ccc(Oc4ccccc4)cc3)cc2-c2ccc(Cl)cc2)cc1` [Compound T8, 4-(5-(4-chlorophenyl)-3-(2-(4-phenoxybenzylidene) hydrazine-1-carbonyl)-1H-pyrazol-1-yl) benzenesulfonamide], the “% inhibition of albumin denaturation” value [1] is reported as “less than 50%”.

With `NS(=O)(=O)c1ccc(-n2nc(C(=O)NN=Cc3ccc(Cl)cc3O)cc2-c2ccc(Br)cc2)cc1` [Compound T9, 4-(5-(4-bromophenyl)-3-(2-(4-chloro-2-hydroxybenzylidene) hydrazine-1-carbonyl)-1H-pyrazol-1-yl) benzenesulfonamide] the “% cell viability” value ([2]; HepG2, 6.25 µg/ml) was 85.46%, the “% cell viability” value ([2]; HepG2, 12.5 µg/ml) was 84.90% and the “% cell viability” value ([2]; HepG2, 25 µg/ml) was 79.30%. For the same compound, the “% cell viability” value ([2]; HepG2, 50 µg/ml) was 67.24%, the “% cell viability” value ([2]; HepG2, 100 µg/ml) was 54.42% and the “IC50 against HepG2” value ([2]; MTT, HepG2) was > 100 µM. The “% cell viability” value ([3]; A549, 6.25 µg/ml) was 91.72%, the “% cell viability” value ([3]; A549, 12.5 µg/ml) was 84.82% and the “% cell viability” value ([3]; A549, 25 µg/ml) was 76.64%. For the same compound, the “% cell viability” value ([3]; A549, 50 µg/ml) was 66.94%, the “% cell viability” value ([3]; A549, 100 µg/ml) was 54.57% and the “IC50 against A549” value ([3]; MTT, A549) was > 100 µM. For the same compound, the IC50 [4] was 3.5 µM and the “% inhibition of albumin denaturation” value [1] was 67.77%.

With `NS(=O)(=O)c1ccc(-n2nc(C(=O)NN=Cc3ccc(Cl)cc3O)cc2-c2ccccc2)cc1` [Compound T10, 4-(3-(2-(4-chloro-2-hydroxybenzylidene) hydrazine-1-carbonyl)-5-phenyl-1H pyrazol-1-yl) benzenesulfonamide] the “% inhibition of albumin denaturation” value [1] was “less than 50%”.
